From patent publication US12123010B2, “Plants having increased tolerance to herbicides” (BASF SE, priority 2017, dated 2024)

Columns and labels:
[1] = tested on: Variant PPO Enzyme L397Q, F420V (Amaranthus PPO2); format: biochemical; conditions: variant L397Q, F420V vs wild type
[2] = tested on: Variant PPO Enzyme L397Q (Amaranthus PPO2); format: biochemical; conditions: variant L397Q vs wild type

In the case of `CCOC(=O)COc1ncccc1Oc1nc(-n2c(=O)cc(C(F)(F)F)n(C)c2=O)c(F)cc1Cl` [Uracilpyridine 2, ethyl 2-[[3-[[3-chloro-5-fluoro-6-[3-methyl-2,6-dioxo-4-(trifluoromethyl)pyrimidin-1-yl]-2-pyridyl]oxy]-2-pyridyl]oxy]acetate], the “Tolerance Factor (R/S)” value [1] was 13678 and the “Tolerance Factor (R/S)” value [2] was 7.
